Measurements: patent US10435405B2, “Pyrazolopyridine compounds and uses thereof” (Incyte Corporation, priority 2016, dated 2019)

Target: HPK1 (Homo sapiens (Human), UniProt Q92918)
Test: HPK1 Kinase Binding Assay
In short: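 This is a LanthaScreen tracer-binding format: a tracer 222/Eu-anti-GST antibody mix (18 nM and 4 nM solution) is added to active HPK1 (4 nM solution) with 3-fold, 11-point compound dilutions. Incubation is 1 h at 25 °C in HEPES pH 7.5 buffer before reading, and Ki is determined.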

Chain of HPK1 (Q92918 1-346): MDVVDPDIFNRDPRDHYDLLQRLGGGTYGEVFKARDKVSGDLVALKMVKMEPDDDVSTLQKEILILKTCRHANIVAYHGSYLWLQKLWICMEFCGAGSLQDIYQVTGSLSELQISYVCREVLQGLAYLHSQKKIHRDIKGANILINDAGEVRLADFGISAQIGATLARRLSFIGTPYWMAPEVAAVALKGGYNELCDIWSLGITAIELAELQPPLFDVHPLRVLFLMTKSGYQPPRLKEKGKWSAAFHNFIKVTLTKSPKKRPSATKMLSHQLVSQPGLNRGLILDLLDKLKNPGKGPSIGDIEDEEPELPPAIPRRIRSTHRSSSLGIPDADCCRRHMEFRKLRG

| Structure (SMILES) | Ki [nM] |
| --- | --- |
| CN(C)C(=O)Oc1cc(F)c(-c2cc3c(-c4cnn(C)c4)n[nH]c3cn2)c(F)c1 [Example 109, 3,5-Difluoro-4-(3-(1-methyl-1H-pyrazol-4-yl)-1H-pyrazolo[3,4-c]pyridin-5-yl)phenyl dimethylcarbamate] | ≤ 100 |
| COc1cccc(F)c1-c1cc2c(NC(=O)c3ccc(C)cc3)n[nH]c2cn1 [Example 2, N-(5-(2-Fluoro-6-methoxyphenyl)-1H-pyrazolo[3,4-c]pyridin-3-yl)-4-methylbenzamide] | ≤ 100 |
| CNC1(c2cc(F)c(-c3cc4c(-c5cnn(C)c5)n[nH]c4cn3)c(F)c2)CC1 [Example 137, 1-(3,5-Difluoro-4-(3-(1-methyl-1H-pyrazol-4-yl)-1H-pyrazolo[3,4-c]pyridin-5-yl)phenyl)-N-methylcyclopropanamine] | ≤ 100 |
| COc1cccc(F)c1-c1cc2c(NC(=O)c3cccc(Br)c3)n[nH]c2cn1 [Example 4, 3-Bromo-N-(5-(2-fluoro-6-methoxyphenyl)-1H-pyrazolo[3,4-c]pyridin-3-yl)benzamide] | ≤ 100 |
| Cc1cc(CNCC#N)cc(F)c1-c1cc2c(-c3cnn(C)c3)n[nH]c2cn1 [Example 188, 2-(3-Fluoro-5-methyl-4-(3-(1-methyl-1H-pyrazol-4-yl)-1H-pyrazolo[3,4-c]pyridin-5-yl)benzylamino)acetonitrile] | ≤ 100 |
| Cc1cc(NC(=O)CN2C3CCC2CC3)cc(F)c1-c1cc2c(-c3cnn(C)c3)n[nH]c2cn1 [Example 82, 2-(7-Azabicyclo[2.2.1]heptan-7-yl)-N-(3-fluoro-5-methyl-4-(3-(1-methyl-1H-pyrazol-4-yl)-1H-pyrazolo[3,4-c]pyridin-5-yl)phenyl)acetamide] | ≤ 100 |
| CN1CCN(c2ccc(-c3n[nH]c4cnc(-c5c(F)cccc5F)cc34)cc2)CC1 [Example 44, 5-(2,6-Difluorophenyl)-3-(4-(4-methylpiperazin-1-yl)phenyl)-1H-pyrazolo[3,4-c]pyridine] | ≤ 100 |
| Cn1cc(-c2n[nH]c3cnc(-c4c(F)ccc(NC(=O)C5CCC5)c4F)cc23)cn1 [Example 59, N-(2,4-Difluoro-3-(3-(1-methyl-1H-pyrazol-4-yl)-1H-pyrazolo[3,4-c]pyridin-5-yl)phenyl)cyclobutanecarboxamide] | ≤ 100 |
| CN1CCN(c2ccc(-c3n[nH]c4cnc(-c5c(F)cccc5C(F)(F)F)cc34)cc2)CC1 [Example 53, 5-(2-Fluoro-6-(trifluoromethyl)phenyl)-3-(4-(4-methylpiperazin-1-yl)phenyl)-1H-pyrazolo[3,4-c]pyridine] | ≤ 100 |
| COc1cccc(F)c1-c1cc2c(-c3cccc(C4CCN(C)CC4)n3)n[nH]c2cn1 [Example 115, 5-(2-Fluoro-6-methoxyphenyl)-3-(6-(1-methylpiperidin-4-yl)pyridin-2-yl)-1H-pyrazolo[3,4-c]pyridine] | ≤ 100 |
| Cc1c(CNC2CC(C)(C)C2)ccc(F)c1-c1cc2c(-c3cnn(C)c3)n[nH]c2cn1 [Example 223, N-(4-Fluoro-2-methyl-3-(3-(1-methyl-1H-pyrazol-4-yl)-1H-pyrazolo[3,4-c]pyridin-5-yl)benzyl)-3,3-dimethylcyclobutanamine] | ≤ 100 |
| CNCCc1cc(F)c(-c2cc3c(-c4cnn(C)c4)n[nH]c3cn2)c(F)c1 [Example 96, 2-(3,5-Difluoro-4-(3-(1-methyl-1H-pyrazol-4-yl)-1H-pyrazolo[3,4-c]pyridin-5-yl)phenyl)-N-methylethanamine] | ≤ 100 |
| CN1CCN(c2ccc(-c3n[nH]c4cnc(-c5c(Cl)cccc5C(F)(F)F)cc34)cc2)CC1 [Example 50, 5-(2-Chloro-6-(trifluoromethyl)phenyl)-3-(4-(4-methylpiperazin-1-yl)phenyl)-1H-pyrazolo[3,4-c]pyridine] | ≤ 100 |
| Cc1cccc(F)c1-c1cc2c(NC(=O)c3ccc(N4CCN(C)CC4)cc3)n[nH]c2cn1 [Example 152, N-(5-(2-Fluoro-6-methylphenyl)-1H-pyrazolo[3,4-c]pyridin-3-yl)-4-(4-methylpiperazin-1-yl)benzamide] | ≤ 100 |
| CNCc1ccc(C)c(-c2cc3c(-c4cnn(C)c4)n[nH]c3cn2)c1 [Example 87, N-Methyl-1-(4-methyl-3-(3-(1-methyl-1H-pyrazol-4-yl)-1H-pyrazolo[3,4-c]pyridin-5-yl)phenyl)methanamine] | ≤ 100 |
| COC(=O)N1CCN(c2ccc(C(=O)Nc3n[nH]c4cnc(-c5c(F)cc(CNC(C)C)cc5F)cc34)c(F)c2)CC1 [Example 148, Methyl 4-(4-(5-(2,6-difluoro-4-((isopropylamino)methyl)phenyl)-1H-pyrazolo[3,4-c]pyridin-3-ylcarbamoyl)-3-fluorophenyl)piperazine-1-carboxylate] | ≤ 100 |
| CNCc1ccc(-c2cc3c(-c4cnn(C)c4)n[nH]c3cn2)c(C(F)(F)F)c1 [Example 112, N-Methyl-1-(4-(3-(1-methyl-1H-pyrazol-4-yl)-1H-pyrazolo[3,4-c]pyridin-5-yl)-3-(trifluoromethyl)phenyl)methanamine] | ≤ 100 |
| COc1cc(N2CCN(C)CC2)ccc1C(=O)Nc1n[nH]c2cnc(-c3c(F)cc(CNC(C)C)cc3F)cc12 [Example 149, N-(5-(2,6-Difluoro-4-((isopropylamino)methyl)phenyl)-1H-pyrazolo[3,4-c]pyridin-3-yl)-2-methoxy-4-(4-methylpiperazin-1-yl)benzamide] | ≤ 100 |
| COC1CN(C(=O)c2cc(F)c(-c3cc4c(-c5cnn(C)c5)n[nH]c4cn3)c(F)c2)C1 [Example 58, (3,5-Difluoro-4-(3-(1-methyl-1H-pyrazol-4-yl)-1H-pyrazolo[3,4-c]pyridin-5-yl)phenyl)(3-methoxyazetidin-1-yl)methanone] | ≤ 100 |
| COc1cccc(F)c1-c1cc2c(NC(=O)c3ccc(N4CCN(C(C)C)CC4)cc3)n[nH]c2cn1 [Example 30, N-(5-(2-Fluoro-6-methoxyphenyl)-1H-pyrazolo[3,4-c]pyridin-3-yl)-4-(4-isopropylpiperazin-1-yl)benzamide] | ≤ 100 |
| Cn1cc(-c2n[nH]c3cnc(-c4c(F)cc(OC(=O)N5CCOCC5)cc4F)cc23)cn1 [Example 110, 3,5-Difluoro-4-(3-(1-methyl-1H-pyrazol-4-yl)-1H-pyrazolo[3,4-c]pyridin-5-yl)phenyl morpholine-4-carboxylate] | ≤ 100 |
| CNC(=O)c1ccc(-c2n[nH]c3cnc(-c4c(F)cccc4OC)cc23)cn1 [Example 101, 5-(5-(2-Fluoro-6-methoxyphenyl)-1H-pyrazolo[3,4-c]pyridin-3-yl)-N-methylpicolinamide] | ≤ 100 |
| COc1c(-c2cc3c(-c4ccc(N5CCN(C)CC5)cc4)n[nH]c3cn2)c(F)cc2c1C(N)CC2 (stereo not shown) [Example 206, 5-Fluoro-7-methoxy-6-(3-(4-(4-methylpiperazin-1-yl)phenyl)-1H-pyrazolo[3,4-c]pyridin-5-yl)-2,3-dihydro-1H-inden-1-amine] | ≤ 100 |

Results, then the compound that gave them:

| Ki [nM] | Structure (SMILES) |
| --- | --- |
| ≤ 100 | Cn1cc(-c2n[nH]c3cnc(-c4c(F)ccc5c4CCCC5N)cc23)cn1 (stereo not shown) [Example 210, 6-Fluoro-5-(3-(1-methyl-1H-pyrazol-4-yl)-1H-pyrazolo[3,4-c]pyridin-5-yl)-1,2,3,4-tetrahydronaphthalen-1-amine] |
| ≤ 100 | COc1cccc(F)c1-c1cc2c(NC(=O)c3cccc(N4CCN(CC(F)(F)F)C(=O)C4)c3)n[nH]c2cn1 [Example 21, N-(5-(2-Fluoro-6-methoxyphenyl)-1H-pyrazolo[3,4-c]pyridin-3-yl)-3-(3-oxo-4-(2,2,2-trifluoroethyl)piperazin-1-yl)benzamide] |
| ≤ 100 | COc1cccc(F)c1-c1cc2c(NC(=O)c3ccn(C)n3)n[nH]c2cn1 [Example 15, N-(5-(2-Fluoro-6-methoxyphenyl)-1H-pyrazolo[3,4-c]pyridin-3-yl)-1-methyl-1H-pyrazole-3-carboxamide] |
| ≤ 100 | CN1CCN(c2ccc(-c3n[nH]c4cnc(-c5c(F)cc(F)cc5F)cc34)cc2)CC1 [Example 46, 3-(4-(4-Methylpiperazin-1-yl)phenyl)-5-(2,4,6-trifluorophenyl)-1H-pyrazolo[3,4-c]pyridine] |
| ≤ 100 | CN1CCN(c2ccc(C(=O)Nc3n[nH]c4cnc(-c5c(F)cc(CN6CCCC6)cc5F)cc34)cc2)CC1 [Example 141, N-(5-(2,6-Difluoro-4-(pyrrolidin-1-ylmethyl)phenyl)-1H-pyrazolo[3,4-c]pyridin-3-yl)-4-(4-methylpiperazin-1-yl)benzamide] |
| ≤ 100 | Cc1cc(CNCc2cn(C)cn2)cc(F)c1-c1cc2c(-c3cnn(C)c3)n[nH]c2cn1 [Example 186, N-(3-Fluoro-5-methyl-4-(3-(1-methyl-1H-pyrazol-4-yl)-1H-pyrazolo[3,4-c]pyridin-5-yl)benzyl)-1-(1-methyl-1H-imidazol-4-yl)methanamine] |
| ≤ 100 | COc1cccc(F)c1-c1cc2c(NC(=O)c3cccc(N4CCNC(=O)C4)c3)n[nH]c2cn1 [Example 17, N-(5-(2-Fluoro-6-methoxyphenyl)-1H-pyrazolo[3,4-c]pyridin-3-yl)-3-(3-oxopiperazin-1-yl)benzamide] |
| ≤ 100 | Cn1cc(-c2n[nH]c3cnc(-c4c(F)cc(OCC5CCN5)cc4F)cc23)cn1 (stereo not shown) [Example 106, 5-(4-(Azetidin-2-ylmethoxy)-2,6-difluorophenyl)-3-(1-methyl-1H-pyrazol-4-yl)-1H-pyrazolo[3,4-c]pyridine] |
| ≤ 100 | CC(C)NCc1cccc(-c2cc3c(-c4cnn(C)c4)n[nH]c3cn2)c1C(F)(F)F [Example 91, N-(3-(3-(1-Methyl-1H-pyrazol-4-yl)-1H-pyrazolo[3,4-c]pyridin-5-yl)-2-(trifluoromethyl)benzyl)propan-2-amine] |
| ≤ 100 | COc1cccc(C(=O)Nc2n[nH]c3cnc(-c4c(F)cccc4OC)cc23)c1 [Example 9, N-(5-(2-Fluoro-6-methoxyphenyl)-1H-pyrazolo[3,4-c]pyridin-3-yl)-3-methoxybenzamide] |
| ≤ 100 | Cn1cc(-c2n[nH]c3cnc(-c4c(F)cc(NC(=O)CN5CCCC5)cc4Cl)cc23)cn1 [Example 73, N-(3-Chloro-5-fluoro-4-(3-(1-methyl-1H-pyrazol-4-yl)-1H-pyrazolo[3,4-c]pyridin-5-yl)phenyl)-2-(pyrrolidin-1-yl)acetamide] |
